Laboratory results taken from patent US20210222168A1, “METHODS FOR REACTIVATING GENES ON THE INACTIVE X CHROMOSOME” (THE GENERAL HOSPITAL CORPORATION, priority 2017, published 2021).
Entries after “also recorded” stand apart in the source; their conditions may differ.

Experiments:
[1] = tested on: X-linked gene expression relative to autosomal expression; assay: Aza three pulse treatment, transcriptomic analysis of brain and liver; type: in vivo, mouse
Text: All libraries were sequenced with Illumina HiSeq, generating 28-54 millions paired-end 50 nucleotide reads per sample. RNA-seq reads were aligned allele-specifically to 129S1/SvJm (mus) and CAST/Eih (cas) genome using TopHat2 (Kim D, et al. (2013) TopHat2: Accurate alignment of transcriptomes in the presence of insertions, deletions and gene fusions. Genome Biol 14:R36). After removal of PCR duplicates, all unique reads mapped to the exons of each gene were quantified by Homer (Heinz S, et al. (2010) Simple combinations of lineage-determining transcription factors prime cis-regulatory elements required for macrophage and B cell identities. Mol Cell 38:576-589). […] To compare the fold change of autosomal and X-linked genes, only genes with FPKM≥1 were considered (Yang L, Kirby J E, Sunwoo H, Lee J T (2016) Female mice lacking Xist RNA show partial dosage compensation and survive to term. Genes Dev 30:1747-1760). […] For allele-specific analysis, we defined % mus as the percentage of mus-specific exonic reads in all allele-specific (mus-specific+cas-specific) exonic reads of each transcript. For classification of X-linked genes, we defined expressed genes as genes having non-zero FPKM in all samples. Allele-assessable genes were defined as active genes that have more than 12 allele-specific reads in all samples (Pinter S F and Colognori D (2015) Allelic imbalance is a prevalent and tissue-specific feature of the mouse transcriptome. Genetics 200:537-549). It has been described that a small fraction of genes overlap with incorrectly annotated SNPs and produce unexpected allelic skewing (Pinter S F and Colognori D (2015) Allelic imbalance is a prevalent and tissue-specific feature of the mouse transcriptome. Genetics 200:537-549; Calabrese J M et al. (2012) Site-specific silencing of regulatory elements as a mechanism of X inactivation. Cell 151:951-963). These genes were identified by analyzing a published RNA-seq dataset of tail-tip fibroblasts (TTF) from pure Mus castaneous background. […]

[2] = Aza three pulse treatment, long-term health, lifespan and body weight
Protocol: Aza was administered to the Xist2lox, Nestin-Cre F2 generation, by IP injection at 5 weeks old. Three injections 100 ul per 10 g of 0.033 mg/ml in sterile saline (or just sterile saline as control) were given over the course of a week (each injection separated by 2 days). Both Xist2lox/2lox and Xist Δ/Δ were injected and were randomly assigned to the treatment group. No specific randomization protocol was followed. RNA from the brain and liver were harvested (as described before) at 7 weeks of age (2 weeks after the first injection).

[3] = cited from earlier work
[4] = tested on: Mecp2:Luciferase knock-in reporter on the Xi; assay: Luciferase assay in Xi-Mecp2-Luc MEFs; type: cell-based, mouse; conditions: for Xi-Mecp2 upregulation / reactivation in combination with the Xist ASO: 20 nM Xist ASO + small molecule inhibitor (EPZ6438 1 uM, VX680 1 uM, Aza 0.5 uM); for upregulation of MECP2 by other Xist gapmers: 20 nM ASO + 0.5 μM Aza (FIG. 7B-D)
Protocol: (§1) Mecp2-Luc fibroblast cell lines were a generous gift from Dr. Bedalov. The clonal hybrid (cast/mus) cell line (EY.T4) was previously developed in the lab (Yildirim E et al. (2011) X-chromosome hyperactivation in mammals via nonlinear relationships between chromatin states and transcription. Nat Struct Mol Biol 19:56-61). Passage number was kept below 25, no further verification of cell line identity was performed. They were maintained in DMEM-glutamax (Gibco), supplemented with fetal bovine serum (FBS, 10%), non-essential amino acids (1×, Gibco), HEPES buffer (25 mM, Gibco), penicillin/streptomycin (1×, Gibco) and 2-Mercaptoethanol (Sigma). Transfection was performed with 20 nM ASO assisted by Lipofectamine LTX with Plus reagent (Thermo Fisher).
Xa-Mecp2-Luc clone cell line was used in parallel for providing a scaling magnitude for normalizing Xi-driven luciferase signals, Cells were grown in a 12 well plate, trypsinized, counted, washed with PBS and dispensed in 20 ul of 1× cell culture lysis reagent (Promega). The mixture was vortexed and incubated for 5 min and then transferred to a zebra 96 well plate. The plate was read using a Perkin Elmer MicroBeta2 LumiJET that automatically adds 100 μl of Luciferase Assay Reagent (Promega) 2 sec before measuring the produced light for 10 sec. The corrected counts per second where divided by the number of cells for generating a luciferase-reactivation score per cell. For the initiating screen ASOs were used at 20 nM (transfected with lipofectamine) in combination with 0.5 uM Aza for 3 days. The reverse screen used 20 nM Xist ASO (transfected with lipofectamine) in combination with the small molecule inhibitors at different concentrations (see Table S-II) for 3 days.
We asked whether an ASO could also be developed for Xi-reactivation. We screened a small ASO library against various targets of potential interest, including Xist RNA and an antisense transcript to Mecp2 (Mecp2-as) (FIG. 1A, FIG. 6, Table S-I). In designing the ASOs, we chose phosporothioate backbone and locked nucleic acid (LNA™) chemistry (Wahlestedt C et al. Potent and nontoxic antisense oligonucleotides containing locked nucleic acids. Proc Natl Acad Sci USA. 2000; 97:5633-5638) for its in vivo and in vitro stability, and increased affinity and selectivity for RNA targets. All were designed as gapmers, with unmodified deoxyribonucleosides in the center flanked by 5′ and 3′ terminal locked nucleosides, to direct RNAse-H-mediated cleavage of the target transcript. […] The luciferase reporter provides a highly sensitive enzymatic detection method with a large dynamic range. […] Epigenetics Chromatin. […] Science. 2015; 349: aab2276-12), we examined the efficacy of each ASO in the presence of 0.5 uM decitabine (“Aza”; 5-aza-2′-deoxycytidine) for three days.

[5] = tested on: Xi-Mecp2-Luc MEF cells; type: cell-based
Protocol: as §1
Imaging was done with a Nikon Eclipse TE2000-E equipped with a HamamatsuCCD camera. Image analysis was done with OpenLAB software (Agilent).

[6] = tested on: Xi-Mecp2-Luc MEF cells; conditions: stated in parentheses only; target and source not given; cited from earlier work

Nc1ncn([C@H]2C[C@H](O)[C@@H](CO)O2)c(=O)n1 [Aza, 5-aza-2′-deoxycytidine]
X- and autosomal gene expression in liver ([1]; three IP Aza pulses over one week at 5 weeks of age, harvested two weeks later, liver (Xist not deleted)): remained balanced | X-linked gene expression relative to autosomal expression in XistΔ/Δ brain ([1]; three IP Aza pulses over one week combined with Xist deletion, brain two weeks later): highly significant positive changes in X-linked gene expression relative to autosomal expression; also recorded: X-upregulation evident in the brain two weeks later; also recorded: sufficient to induce Xi reactivation after two weeks in the brain | X-to-autosomal gene expression in Xist2lox/2lox (wild-type) brain ([1]; three IP Aza pulses over one week, brain two weeks later): did not result in X-to-autosomal gene imbalance | survival ([2]; after short-term Aza pulse treatment): all mice advanced to 1-2 year of age | body weight, Aza versus saline treatment groups ([2]; mouse, in vivo): did not introduce significant differences | health and lifespan ([2]; mouse, in vivo): no measurable differences in health and lifespan | blood-brain-barrier crossing ([3]; cited: Chabot et al., rabbits and dogs): can cross the blood-brain-barrier | half-life (t1/2) in plasma ([3]; plasma): < 1 h | Mecp2:luciferase upregulation, single treatments compared with the combination ([4]; 5 days): remained significantly lower | cell death at higher Aza concentrations ([5]; 1.0, 2.5 uM Aza, 3-day treatment): increased cell death | tolerable Aza concentrations in cell culture ([5]; FIG. 2C): 0.5 µM | IC50 [6]: 500 nM

CCN(c1cc(-c2ccc(CN3CCOCC3)cc2)cc(C(=O)NCc2c(C)cc(C)[nH]c2=O)c1C)C1CCOCC1 [EPZ6438, N-((4,6-dimethyl-2-oxo-1,2-dihydropyridin-3-yl)methyl)-5-(ethyl(tetrahyd-ro-2H-pyran-4-yl)amino)-4-methyl-4′-(morpholinomethyl)-[1,1′-biphenyl]-3-carboxamide]
Xi-Mecp2 upregulation / reactivation in combination with the Xist ASO ([4]; 3 days): varying degrees of upregulation; also recorded: larger degree of reactivation than previously seen with any other compound

Cc1cc(Nc2cc(N3CCN(C)CC3)nc(Sc3ccc(NC(=O)C4CC4)cc3)n2)n[nH]1 [VX680]
Xi-Mecp2 upregulation / reactivation in combination with the Xist ASO ([4]; 3 days): varying degrees of upregulation; also recorded: larger degree of reactivation than previously seen with any other compound

Scr ASO: negative control ASO, scrambled sequence; AACACGTCTATACGC, SEQ ID NO: 1 (all phosphorothioate, sugars by position and methylation of C not given here; LNA gapmer with DNA center and LNA wings)
luminescent counts per second (LCPS) / Mecp2:luciferase reactivation, single treatment ([4]; 3 days, ASO 20 nM or Aza 0.5 uM alone): neither the control Scr ASO (20 nM) nor Xist ASO (20 nM gapmer 1) resulted in measurable luminescent counts per second

Xist ASO 2: LNA gapmer ASO targeting Xist exon 1; AGTAGCTCGGTGGAT, SEQ ID NO: 3 (all phosphorothioate, sugars by position and methylation of C not given here; LNA gapmer with DNA center and LNA wings)
upregulation of MECP2 by other Xist gapmers [4]: found to also upregulate MECP2

Xist ASO 3: LNA gapmer ASO targeting Xist exon 1; TGAGTCTTGAGGAGAA, SEQ ID NO: 4 (all phosphorothioate, sugars by position and methylation of C not given here; LNA gapmer with DNA center and LNA wings)
upregulation of MECP2 by other Xist gapmers [4]: found to also upregulate MECP2
